Experimental data published in patent publication EP4772514A1, “MACROCYCLIC COMPOUNDS, PREPARATION METHOD THEREFOR, AND USE THEREOF” (Genfleet Therapeutics (Shanghai) Inc., priority 2023, dated 2025).
Where two headings read alike, the source gives them in different places.

Legend:
Assay type in all cases: cell-based
[1] = system: p-ERK; test: Cell p-ERK assay (HTRF, Advance ERK phospho-T202/Y204 kit) in NCI-H441 cells; settings: NCI-H441, human non-small cell lung cancer cell strain, KRAS G12V mutation, 3 h compound incubation
Procedure, shortened: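 Cells with endogenous KRAS mutations, AsPC-1 (G12D) and NCI-H441 (G12V), were plated overnight and then exposed to compound for 3 h at 37 °C (final 0.1% DMSO, 10% FBS medium). ERK T202/Y204 phosphorylation in lysates was read by HTRF, and IC50 was derived from four-parameter curves of inhibition relative to DMSO and blank controls.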

[2] = system: p-ERK; test: Cell p-ERK assay (HTRF, Advance ERK phospho-T202/Y204 kit) in AsPC-1 cells; settings: AsPC-1, human pancreatic cancer cell strain, KRAS G12D mutation, 3 h compound incubation
Description: AsPC-1 cells were purchased from ATCC, Cat. No. CRL-1682; NCI-H441 cells were purchased from ATCC, Cat. No. HTB-174; RPMI-1640 medium was purchased from Gibco, Cat. No. 11875-093; FBS was purchased from Gibco, Cat. No. 10099-141C; penicillin/streptomycin double-antibiotic solution (PS) was purchased from Gibco, Cat. No. 15140-122; trypsin (containing EDTA) was purchased from Gibco, Cat. No. 25200-072; DMSO was purchased from VWRAMRESCO, Cat. No. 0231-500ML; 96-well cell culture plates were purchased from Corning, Cat. No. 3599; white-bottomed, opaque 96-well plates were purchased from Cisbio, Cat. No. 66PL96025; Advance ERK phospho-T202/Y204 kit was purchased from Cisbio, Cat. No. 64AERPEH; cell counter was purchased from CHEMOMETEC, model: NC-200; microplate reader was purchased from PerkinElmer, model: EnVision.
AsPC-1, a human pancreatic cancer cell strain endogenously containing a KRAS^G12D mutation, was cultured in a complete medium containing RPMI-1640 + 10% FBS + 1% PS. NCI-H441, a human non-small cell lung cancer cell strain endogenously containing a KRAS^G12V mutation, was cultured in a complete medium containing RPMI-1640 + 10% FBS + 1% PS.
The cells were digested with trypsin (containing EDTA), collected in their corresponding complete media, and counted. The density of the cell suspensions was adjusted with their corresponding complete media, and AsPC-1 cells (10000 cells/well) or NCI-H441 cells (20000 cells/well) were seeded into a 96-well cell culture plate, with the volume of the medium in each well being 80 µL. The cell culture plate was incubated in an incubator at 37 °C with 5% CO2 overnight. A series of 3.16-fold gradient dilutions of a 1000× compound stock solution were prepared with DMSO, and then diluted 200-fold with the complete medium described above to give 5× compound stock solutions. On the day after cell seeding, 20 µL of the 5× compound stock solution was added to each cell culture well. As a result, the final concentration of the compound in the cell culture well became 1×, and the DMSO content in the well was 0.1%. In addition to the compound-treated wells described above, cell-containing DMSO control wells were also set. A complete medium containing 0.5% DMSO was added at 20 µL/well. After the mixture was well mixed, the culture plate was incubated in the incubator at 37 °C with 5% CO2 for another 3 h. The medium was then removed from the culture wells, and 50 µL of cell lysis buffer (from Advance ERK phospho-T202/Y204 kit) was added to each well. The mixture was well mixed, incubated for 30 min, and then transferred to a white-bottomed, opaque 96-well assay plate at 16 µL/well, and separately, 16 µL of cell lysis buffer was added to additional wells (serving as blank wells) in the assay plate. After the transfer was completed, 4 µL of p-ERK HTRF antibody mixture (from Advance ERK phospho-T202/Y204 kit) was added to each well of the assay plate, followed by a 4-hour incubation. The HTRF signal values (RLU) were then measured using a microplate reader, and the inhibition rate of the compound against p-ERK levels was calculated as follows: IR(%) = (RLUDMSO - RLUcompound)/(RLUDMSO - RLUblank) × 100%, where RLUDMSO is the average HTRF signal value from the DMSO control well samples, RLU is the average HTRF signal value from the blank well samples, and RLUcompound is the HTRF signal value from the compound-treated well samples. Using an XLfit software, the IR(%) values were plotted against the logarithm of the compound concentrations, and the dose-response curves were fitted using the four-parameter method to calculate the IC50 values.

[3] = system: NCI-H441 cells; test: 3D cell proliferation assay (CellTiter Glo-3D) in NCI-H441 cells; settings: NCI-H441, human lung cancer cell strain, KRAS G12V mutation, 3D culture, 2% FBS, 5 days, read-out: H441 AP IC50
Procedure, shortened: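 KRAS^G12V NCI-H441 and KRAS^G12D AsPC-1 cells (800 cells/well each) grown in RPMI-1640 with 2% FBS and treated the day after seeding with 3.16-fold compound dilutions (0.1% DMSO) for 5 days at 37 °C. Viability by CellTiter-Glo 3D luminescence; inhibition versus DMSO and cell-free controls, IC50 from four-parameter fit.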

[4] = system: AsPC-1 cells; test: 3D cell proliferation assay (CellTiter Glo-3D) in AsPC-1 cells; settings: AsPC-1, human pancreatic cancer cell strain, KRAS G12D mutation, 3D culture, 2% FBS, 5 days, read-out: AsPC-1 AP IC50
Excerpt: MIA PaCa-2 cells were purchased from ATCC, Cat. No. CRL-1420; AsPC-1 cells were purchased from ATCC, Cat. No. CRL-1682; NCI-H441 cells were purchased from ATCC, Cat. No. HTB-174; NCI-H1975 cells were purchased from ATCC, Cat. No. CRL-5908; DMEM medium was purchased from Gibco, Cat. No. 11995-065; RPMI-1640 medium was purchased from Gibco, Cat. No. 11875-093; FBS was purchased from Gibco, Cat. No. 10099-141C; penicillin/streptomycin double-antibiotic solution (PS) was purchased from Gibco, Cat. No. 15140-122; Horse serum was purchased from Gibco, Cat. No. 16050130; trypsin (containing EDTA) was purchased from Gibco, Cat. No. 25200-072; DMSO was purchased from VWRAMRESCO, Cat. No. 0231-500ML; 384-well cell culture plates were purchased from Corning, Cat. No. 3830; white-bottomed, opaque 384-well assay plates were purchased from Corning, Cat. No. 3570; CellTiter Glo-3D kit was purchased from Promega, Cat. No. G9683; cell counter was purchased from CHEMOMETEC, model: NC-200; microplate reader was purchased from PerkinElmer, model: EnVision.
MIA PaCa-2, a human pancreatic cancer cell strain endogenously containing a KRAS^G12Cmutation, was cultured in a complete medium containing DMEM + 10% FBS + 2.5% Horse serum + 1% PS. AsPC-1, a human pancreatic cancer cell strain endogenously containing a KRAS^G12D mutation, was cultured in a complete medium containing RPMI-1640 + 10% FBS + 1% PS. NCI-H441 cells, a human lung cancer cell strain endogenously containing a KRAS^G12V mutation, were cultured in a complete medium containing RPMI-1640 + 10% FBS + 1% PS. NCI-H1975, a KRAS wild-type human lung cancer cell strain whose cell proliferation […], was cultured in a complete medium containing RPMI-1640 + 10% FBS + 1% PS.
The cells were digested with trypsin (containing EDTA), collected in their respective low-serum complete media containing 2% FBS (for MIA Paca-2 cell culture: DMEM + 2% FBS + 0.5% Horse serum + 1% PS), and counted. After the cell density was adjusted as required, MIA PaCa-2 cells (200 cells/well), AsPC-1 cells (800 cells/well), NCI-H441 cells (800 cells/well), or NCI-H1975 cells (400 cells/well) were seeded into a 384-well cell culture plate, with the volume of the medium in each well being 45 µL. The cell culture plate was incubated in an incubator at 37 °C with 5% CO2 overnight. A series of 3.16-fold gradient dilutions of a 1000× compound stock solution were prepared with DMSO, and then diluted 100-fold with the complete medium containing 2% FBS described above to give 10× compound stock solutions. On the day after cell seeding, 5 µL of the 10× compound stock solution was added to each cell culture well. As a result, the final concentration of the compound in the cell culture well became 1×, and the DMSO content in the well was 0.1%. In addition to the compound-treated wells described above, cell-containing DMSO control wells (with 5 µL of the complete medium containing 1% DMSO added to each well) and cell-free medium control wells (containing 50 µL of the complete medium with 2% FBS) were also set. The culture plate was incubated in an incubator at 37 °C with 5% CO2 for another 5 days, and then 30 µL of CellTiter-Glo working solution was added to each well. The mixture was well mixed, incubated for 30 min, left to stand at room temperature for 30 min, and then transferred to a white-bottomed, opaque 384-well assay plate at 40 µL/well. The chemiluminescence values (RLU) were measured using a microplate reader, and the cell proliferation inhibition rate for each well was calculated: IR(%) = (RLUDMSO - RLUcompound)/(RLUDMSO - RLUblank) × 100%, where RLUDMSO is the average RLU signal value from the DMSO control well samples, RLUblank is the average RLU signal value from the medium control well samples, and RLUcompound is the RLU signal value from the compound-treated well samples. […]

Compound	IC50 ([1]; Homo sapiens, NCI-H441, 3 h)	IC50 ([2]; ASPC1)	IC50 ([3]; Homo sapiens, NCI-H441, 120 h)	IC50 ([4]; ASPC1, 120 h)	IC50 [1]	IC50 [2]	IC50 [3]	IC50 [4]
CCn1cc2c(c1-c1cc(C#CCN3CCC(C#N)(CO)CC3)cnc1[C@H](C)OC)CC(C)(C)COC(=O)[C@@H]1CCCN(N1)C(=O)[C@@H](NC(=O)[C@H]1[C@H](C)[C@@H]1C)Cc1nc(cs1)/C=C/2 (atropisomer, axis not shown; (Ra)) [Compound Z103, (1r,2R,3S)-N-((4^2Z,8^3S,2E,6S)-(Ra)-1^5-(5-(3-(4-cyano-4-(hydroxymethyl)piperidin-1-yl)prop-1-yn-1-yl)-2-((S)-1-methoxyethyl)pyridin-3-yl)-1^1-ethyl-12,12-dimethyl-7,9-dioxo-8^1,8^2,8^3,8^4,8^5,8^6-hexahydro-1^1H-10-oxa-4(4,2)-thiazola-8(1,3)-pyridazina-1(3,4)-pyrrolacyclotridecaphan-2-en-6-yl)-2,3-dimethylcyclopropane-1-carboxamide]	320 pM	80 pM	110 pM	50 pM				
(1r,2R,3S)-N-((4^2Z,8^3R,2E,6R)-1^1-ethyl-(Sa)-1^5-(2-((S)-1-methoxyethyl)-5-(4-methylpiperazin-1-yl)pyridin-3-yl)-12,12-dimethyl-7,9-dioxo-8^1,8^2,8^3,8^4,8^5,8^6-hexahydro-1^1H-10-oxa-4(4,2)-thiazola-8(1,3)-pyridazina-1(3,4)-pyrrolacyclotridecaphan-2-en-6-yl)-2,3-dimethylcyclopropane-1-carboxamide [Compound Z8-1]					98600 pM	103000 pM	62700 pM	64300 pM
CCn1cc2c(c1-c1cc(C#CCN3CCC(C#N)(CO)CC3)cnc1[C@H](C)OC)CC(C)(C)COC(=O)[C@@H]1CCCN(N1)C(=O)[C@@H](NC(=O)[C@H]1[C@@H]3COC[C@@H]31)Cc1nc(cs1)/C=C/2 (atropisomer, axis not shown; (Ra)) [Compound Z104, (1R,5S,6r)-N-((4^2Z,8^3S,2E,6S)-(Ra)-1^5-(5-(3-(4-cyano-4-(hydroxymethyl)piperidin-1-yl)prop-1-yn-1-yl)-2-((S)-1-methoxyethyl)pyridin-3-yl)-1^1ethyl-12,12-dimethyl-7,9-dioxo-8^1,8^2,8^3,8^4,8^5,8^6-hexahydro-1^1H-10-oxa-4(4,2)-thiazola-8(1,3)-pyridazina-1(3,4)-pyrrolacyclotridecaphan-2-en-6-yl)-3-oxabicyclo[3.1.0]hexane-6-carboxamide]	470 pM	170 pM	140 pM	190 pM				
CO[C@@H](C)c1ncc(C#CCN2CCS(=O)(=O)CC2)cc1-c1c2c(cn1C1CCCC1)/C=C/c1csc(n1)C[C@H](NC(=O)[C@H]1[C@H](C)[C@@H]1C)C(=O)N1CCC[C@H](N1)C(=O)OCC(C)(C)C2 (atropisomer, axis not shown; (Ra)) [Compound Z125, (1r,2R,3S)-N-((4^2Z,8^3S,2E,6S)-1^1-cyclopentyl-(Ra)-1^5-(5-(3-(1,1-dioxidothiomorpholino)prop-1-yn-1-yl)-2-((S)-1-methoxyethyl)pyridin-3-yl)-12,12-dimethyl-7,9-dioxo-8^1,8^2,8^3,8^4,8^5,8^6-hexahydro-1^1H-10-oxa-4(4,2)-thiazola-8(1,3)-pyridazina-1(3,4)-pyrrolycyclotridec-2-en-6-yl)-2,3-dimethylcyclopropane-1-carboxamide]	530 pM	510 pM	360 pM	350 pM				
